Laboratory results as given in patent US6863898B2, “Method and composition for treating hairy hoof warts” (priority 2002, dated 2005).

Tested on: hairy hoof warts
Test: Footwrap application of aspirin compositions to infected hoofs of cows with hairy hoof warts
Assay type: in vivo
Details: topical; for healing of hairy hoof wart infections (result in words): 23 cubic centimeters in a footwrap left on the hoof about fourteen days
Protocol: In testing the method of the subject invention on cows with hairy hoof warts, an aspirin composition (100% aspirin powder) was administered to the infected hoof by incorporating the aspirin into a conventional footwrap and wrapping the footwrap about an animal's hoof so that the aspirin was applied to an infected area of an animal's hoof. The aspirin composition of the subject invention that includes about 75% by weight aspirin powder, about 5% by weight hydrated lime, about 15% by weight sodium bentonite, and about 5% by weight chalk was also tested in the same manner. With the application of the aspirin compositions to the infected hoof areas by this method, the infection progressively diminished and the hairy hoof warts were typically healed within about fourteen days. In the method of the subject invention for treating anchor preventing hairy hoof warts, an aspirin composition of 100% aspirin, a composition of another compound or derivative of salicylic acid of 100% of the other compound or derivative, an aspirin containing composition, or a composition containing another compound or derivative of salicylic acid is administered in an effective amount to an infected area of an animal's hoof or, as a preventive measure, to an area of an animal's hoof that could be infected. In a preferred embodiment of the method of the subject invention, the composition of or containing aspirin or another compound or derivative of salicylic acid is incorporated into a conventional footwrap, such as but not limited to a footwrap sold by Minnesota Mining and Manufacturing under the trade designation “[…]”. The footwrap is then applied to an animal's hoof with the composition being applied to the infected area of the hoof or, as a preventive measure, to an area of potential hoof infection. […]

CC(=O)Oc1ccccc1C(=O)O [100% aspirin powder, aspirin]
healing of hairy hoof wart infections (result in words) (listed as 100% powdered aspirin composition): successful in healing even severe hairy hoof wart infections
healing of hairy hoof wart infections (result in words) (listed as aspirin composition of 100% aspirin): appeared to achieve the best results
time until the hairy hoof warts were healed (composition in a conventional footwrap on the infected hoof area, typical value): fourteen
